Measured values reported in article PMC7440915, “Discovery of surrogate agonists for visceral fat Treg cells that modulate metabolic indices in vivo” (eLife, 2020).
Where no end group is shown, it is not given here.

Key:
[1] = tested on: vTreg53 TCR (transduced Jurkat T cells); assay: CD69/CD25 up-regulation on vTreg53 TCR transduced Jurkat T cells with peptide-pulsed K562-A^b cells; assay type: cell-based, Homo sapiens (cells); murine TCR
Experimental: (§1) Figure 3. Identification of robust vTreg53 TCR agonists. Single-point mutants based on the Fat7 (A) or Fat15 (B) peptides were used to stimulate Fat-TCR transduced Jurkat T cells. Data shown are mean fluorescence intensity for CD69 up-regulation following overnight stimulation with the indicated peptides at 100 µM. (C) Potent SPs based on Fat15. Single-residue mutations from the Fat15 are shown in red. Anchor positions are shown in grey and potential TCR-facing positions are shown in green. A peptide titration of single- and double-point mutants from the Fat15 SP show up to ~4- (D; CD69) or ~8 fold (E; CD25) increase in Emax. (F) Surface plasmon resonance for Fat7, Fat15, Fat1562 and Fat2564 was used to determine the pMHC/Fat TCR affinity. All biotinylated pMHC were purified by SEC and immobilized in a streptavidin-coated SPR sensor chip from 200 up to 600 RU. Data are mean ± SD from n = 2 (A, D, E) or 3 (B) biological replicates from 1 representative of 3 independent experiments. Data shown in (F) is representative of 2 independent experiments. Figure 3—figure supplement 1. In vitro peptide stimulation of the vTreg53 TCR cells. (A) Expression of wild-type Ab MHC in stably transduced K562 cells. (B) Expression of vTreg53 TCR in stably transduced Jurkat T cells (TCRαβ-/-). (C) Fraction of CD25+/CD69+ cells following overnight stimulation with Fat mimotopes at the indicated concentrations. (D) Peptide-A^b - streptavidin PE (pAb -SAPE) titration of vTreg53 transduced Jurkat T cells. Cells were stained with 250 nM of pA^b-SAPE tetramer for 1 hr.
Cell lines were kept in a humidified incubator at 37°C with 5% CO2 unless otherwise denoted. Jurkat T cells (derived from acute T cell leukemia ATCC TIB-152) and K562 cells (ATCC CCL-243) were cultured in RPMI supplemented with 2 mM glutamax (Invitrogen), 10% FBS (Sigma),10 mM HEPES pH 8.0 (ThermoFisher), 1 mM Sodium Pyruvate (Gibco) and 50 U/ml penicillin and streptomycin (ThermoFisher). Validation of T cell lines was performed by staining with known markers pre- and post- transfection or transduction. HEK293T (Lenti-X; Takara Bio USA, #632180) cells (female derived kidney cell line) were grown in DMEM complete media (ThermoFisher) supplemented with 10% FBS, 2 mM L-glutamine, and 50 U/ml of penicillin and streptomycin. Cells were tested for mycoplasma contamination using the MycoAlert Mycoplasma Detection kit (Lonza) and found to be mycoplasma-negative. For peptide assays, Jurkat T cells were rested overnight or for 2–3 hr in fresh RPMI complete. Cells were co-cultured for 16 to 48 hr with surrogate APCs: K562 transduced with A^b. After overnight incubation, cells were washed in MACS buffer and stained with anti-TCR, A^b, CD69 and CD25. EBY100 yeast cells were cultured in sterile filtered standard YPD (Bacto Peptone, glucose and yeast extract). Transformed yeast were grown in SDCAA (yeast nitrogen base, casamino acids -ADE, -URA, -TRP, D-glucose and buffered to pH 4.5 using sodium citrate and citric acid monohydrate) and induced in SGCAA where galactose replaces D-glucose. EBY100 cells are grown at 30°C when cultured in SDCAA, or at 20°C when cultured in SGCAA at atmospheric CO2 in an orbital shaker set to an agitation speed of 250 rpm.

vTreg53 (Fat) TCR = assay: Surface plasmon resonance, pMHC/Fat TCR affinity; assay type: binding, murine; settings: 25°C
Experimental: as §1
High Five cells (Tni; Expression Systems) were grown in Insect X-press media (Lonza) or ESF 921 media (Expression Systems) with a final concentration of 10 mg/L of gentamicin sulfate (ThermoFisher) at 27°C at atmospheric CO2. SF9 cells are grown in SF900-III or -II serum-free media (ThermoFisher) with 10% FBS and final concentration 10 mg/L of gentamicin sulfate and 2 mM glutamax at 27°C at atmospheric CO2. P1 or P2 virus was used to infect volumes of 1–3 L of Hi5 cells at ∼2 × 10^6 cells/ml. Supernatant was harvested 2–3 days post-infection and spun down at 8000 rpm for 15 min. The supernatant containing expressed protein was treated to 100 mM Tris pH 8.0, 1 mM NiCl2, and 5 mM CaCl2 to precipitate contaminants. The supernatant and precipitate mixture was spun down at 8000 rpm for 20 min at 4°C to remove precipitate. The supernatant was incubated with Ni-NTA resin (QIAGEN) for >3 hr at room temperature. Ni-NTA beads were collected and washed in a Buchner funnel with 20 mM imidazole in 1 x HBS pH 7.2 and eluted with 200 mM imidazole in 1x HBS pH 7.2. Protein was concentrated in a 10 kDa filter (Millipore, UFC903024) to ~1 mL. When appropriate, protein was biotinylated with BirA ligase, 100 μM biotin, 40 mM Bicine pH 8.3, 10 mM ATP, and 10 mM Magnesium Acetate at 4°C overnight. All proteins were further purified by size-exclusion chromatography using Superdex Increase S200 or S75, as appropriate (GE Healthcare). All proteins for in vivo studies were cleared of endotoxin. Final endotoxin levels were determined using a chromogenic endotoxin quantitation kit (Thermo Fisher) and never greater than 1 Endotoxin Unit/mg of purified protein.
A GE Biacore T100 was used to measure the KD by equilibrium methods. Approximately 200 resonance units (RU) of human CD45, PD-1 or mouse PD-1 was captured on a SA-chip (GE Healthcare), including a reference channel of an unrelated protein. SPR runs were performed in HBS-P+ (GE Healthcare). All measurements were made with 2-fold serial dilutions using 45–60 s association (at 30 μl/min) followed by >240 s dissociation (30 μl/min) at 25°C. Regeneration was performed using HBS-P+, 2 M MgCl2 or 0.1 M Glycine, pH 3.1 for 15–20 s at 50 μl/min. Measurement of titrations at equilibrium were used to determine the KD using Biacore Analysis Software (GE Healthcare). All measurements were repeated twice.

EC50 ([1]; peptide titration, CD69 (Figure 3D), overnight, mean ± SD from n = 2 biological replicates, 1 representative of 3 experiments): 40.7 µM
Kd (vTreg53 (Fat) TCR; Biacore T100, biotinylated pMHC immobilized on SA chip 200 to 600 RU, HBS-P+, equilibrium, representative of 2 experiments): 32.8 µM
Sequence: TMYKNPRPVAATG [Fat15]
CD69 up-regulation ([1]; overnight stimulation, screen at 100 µM): able to up-regulate CD69 expression
koff (vTreg53 (Fat) TCR; SPR): fast kon and koff
kon (vTreg53 (Fat) TCR; SPR): fast kon
